Active and inactive are the calls of the source. No cut-off for these calls is given here.
Experiments:
Rattus norvegicus [1] = test: Neurotoxicity in Sprague-Dawley rat assessed as behavioral change at 30 mg/kg, po measured at […] post dose; type: toxicity, organism-based; conditions: in vivo
Mus musculus [2] = test: Neurotoxicity in mouse assessed as induction of motor impairment at 300 mg/kg, ip measured at 0.5 hrs post dose by rotarod method; type: toxicity, organism-based; conditions: in vivo
Mus musculus [3] = test: Neurotoxicity in mouse assessed as induction of motor impairment at 30 mg/kg, ip measured at 4 hrs post dose by rotarod method; type: toxicity, organism-based; conditions: in vivo
Mus musculus [4] = test: Neurotoxicity in mouse assessed as induction of motor impairment at 100 mg/kg, ip measured at 4 hrs post dose by rotarod method; type: toxicity, organism-based; conditions: in vivo
Mus musculus [5] = test: Anticonvulsant activity in 6-Hz induced seizure mouse model assessed as restoration of normal activity within 10 secs from stimulation at 100 mg/kg, ip at 32 mA measured at 1 hr post dose; type: functional, organism-based
Mus musculus [6] = test: Anticonvulsant activity in po dosed maximal electroshock induced seizure mouse model assessed as suppression in hindlimb tonic extension by measuring time to peak effect; type: functional
[7] = Protection index, ratio of TD50 for neurotoxicity in ip dosed mouse to ED50 for ip dosed 6-Hz induced seizure mouse model at 44 mA; type: toxicity, organism-based; conditions: in vivo, read-out: Ratio TD50/ED50
[8] = target: Translocator protein (Rattus norvegicus) (UniProt P16257); test: Displacement of [3H]PK 11195 from rat heart peripheral-type benzodiazepine receptor at 100 uM measured after 15 mins by scintillation counting method relative to control
Rattus norvegicus [9] = species on record: Rattus norvegicus; test: Displacement of [3H]GABA from rat cerebral cortex GABA receptor at 100 uM
[10] = target: T1, Galanin receptor type 1 (Homo sapiens) (UniProt P47211); test: Displacement of [125I]galanin from human recombinant GAL1 receptor expressed in HEK293 cells at 100 uM measured after 60 mins by scintillation counting method relative to control; type: cell-based
T1 sequence (whole entry): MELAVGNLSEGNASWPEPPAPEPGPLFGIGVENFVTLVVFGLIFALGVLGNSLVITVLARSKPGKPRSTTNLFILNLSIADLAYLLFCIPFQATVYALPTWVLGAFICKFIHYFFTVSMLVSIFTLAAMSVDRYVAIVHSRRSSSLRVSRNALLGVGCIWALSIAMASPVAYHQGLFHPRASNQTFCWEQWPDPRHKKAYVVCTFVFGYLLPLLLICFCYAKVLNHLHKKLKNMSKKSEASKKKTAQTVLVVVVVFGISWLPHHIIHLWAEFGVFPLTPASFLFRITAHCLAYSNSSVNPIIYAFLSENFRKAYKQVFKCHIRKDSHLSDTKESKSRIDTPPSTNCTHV

[11] = target: T2, Muscarinic acetylcholine receptor M4 (Homo sapiens) (UniProt P08173); test: Displacement of [3H]4-DAMP from human recombinant M4 receptor expressed in CHO cells at 100 uM measured after 60 mins by scintillation counting method relative to control; type: cell-based
T2 sequence (whole entry): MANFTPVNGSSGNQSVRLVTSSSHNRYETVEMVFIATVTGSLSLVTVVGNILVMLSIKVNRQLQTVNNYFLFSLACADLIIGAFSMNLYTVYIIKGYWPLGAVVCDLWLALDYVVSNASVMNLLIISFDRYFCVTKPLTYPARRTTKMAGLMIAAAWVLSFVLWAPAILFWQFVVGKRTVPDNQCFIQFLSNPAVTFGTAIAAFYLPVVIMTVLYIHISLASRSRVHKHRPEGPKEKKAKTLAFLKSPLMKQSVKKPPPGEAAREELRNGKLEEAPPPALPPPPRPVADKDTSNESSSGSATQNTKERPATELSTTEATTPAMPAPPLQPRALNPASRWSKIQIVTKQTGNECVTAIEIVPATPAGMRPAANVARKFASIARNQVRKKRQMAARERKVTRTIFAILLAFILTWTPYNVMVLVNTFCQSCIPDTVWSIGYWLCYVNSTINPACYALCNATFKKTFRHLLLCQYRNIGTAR

[12] = target: T3, Peroxisome proliferator-activated receptor gamma (Homo sapiens) (UniProt P37231); test: Displacement of [3H]rosiglitazone from human recombinant PPAR-gamma receptor expressed in Escherichia coli at 100 uM measured after 120 mins by scintillation counting method relative to control
T3 sequence (whole entry): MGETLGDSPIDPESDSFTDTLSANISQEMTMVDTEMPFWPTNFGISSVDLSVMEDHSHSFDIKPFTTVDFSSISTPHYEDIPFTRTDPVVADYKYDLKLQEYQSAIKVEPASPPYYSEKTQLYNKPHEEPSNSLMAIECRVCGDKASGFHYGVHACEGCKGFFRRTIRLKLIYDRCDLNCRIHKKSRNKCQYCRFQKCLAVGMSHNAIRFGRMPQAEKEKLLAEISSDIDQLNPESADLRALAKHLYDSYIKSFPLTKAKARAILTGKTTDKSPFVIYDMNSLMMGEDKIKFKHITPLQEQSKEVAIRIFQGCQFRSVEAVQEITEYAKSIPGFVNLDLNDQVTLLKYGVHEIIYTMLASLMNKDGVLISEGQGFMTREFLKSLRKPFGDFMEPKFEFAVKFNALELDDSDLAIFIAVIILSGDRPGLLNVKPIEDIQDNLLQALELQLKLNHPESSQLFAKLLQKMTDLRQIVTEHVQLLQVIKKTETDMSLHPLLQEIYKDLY

[13] = target: Prostacyclin receptor (Homo sapiens) (UniProt P43119); test: Displacement of [3H]iloprost from human recombinant IP receptor expressed in HEK293 cells at 100 uM measured after 60 mins by scintillation counting method relative to control; type: cell-based
[14] = target: 5-hydroxytryptamine receptor 6 (Homo sapiens) (UniProt P50406); test: Displacement of [3H]LSD from human recombinant 5HT6 receptor expressed in CHO cells at 100 uM measured after 120 mins by scintillation counting method relative to control; type: cell-based
[15] = target: 5-hydroxytryptamine receptor 7 (Homo sapiens) (UniProt P34969); test: Displacement of [3H]LSD from human recombinant 5HT7 receptor expressed in CHO cells at 100 uM measured after 120 mins by scintillation counting method relative to control; type: cell-based
AtT20 = test: Displacement of [125I]Tyr11-somatostatin-14 from Sst receptor in mouse AtT-20 cells at 100 uM measured after 60 mins by scintillation counting method relative to control; type: cell-based
Rattus norvegicus [16] = species on record: Rattus norvegicus; test: Displacement of [125I]apamin from rat cerebral cortex SKCa channel at 100 uM measured after 60 mins by scintillation counting method relative to control
[17] = target: Sodium-dependent dopamine transporter (Homo sapiens) (UniProt Q01959); test: Displacement of [3H]BTCP from human recombinant dopamine transporter expressed in CHO cells at 100 uM measured after 120 mins by scintillation counting method relative to control; type: cell-based
Mus musculus [18] = test: Anticonvulsant activity in maximal electroshock induced seizure mouse model assessed as suppression in hindlimb tonic extension at 300 mg/kg, ip measured at 4 hrs post dose; type: functional, organism-based
Rattus norvegicus [19] = test: Neurotoxicity in Sprague-Dawley rat assessed as behavioral change at 50 mg/kg, ip measured at 0.5 hrs post dose; type: toxicity, organism-based; conditions: in vivo
Rattus norvegicus [20] = test: Neurotoxicity in Sprague-Dawley rat assessed as behavioral change at 50 mg/kg, ip measured at 1 hr post dose; type: toxicity, organism-based; conditions: in vivo

Sequence of 5-hydroxytryptamine receptor 7 (Homo sapiens) (P34969 whole entry): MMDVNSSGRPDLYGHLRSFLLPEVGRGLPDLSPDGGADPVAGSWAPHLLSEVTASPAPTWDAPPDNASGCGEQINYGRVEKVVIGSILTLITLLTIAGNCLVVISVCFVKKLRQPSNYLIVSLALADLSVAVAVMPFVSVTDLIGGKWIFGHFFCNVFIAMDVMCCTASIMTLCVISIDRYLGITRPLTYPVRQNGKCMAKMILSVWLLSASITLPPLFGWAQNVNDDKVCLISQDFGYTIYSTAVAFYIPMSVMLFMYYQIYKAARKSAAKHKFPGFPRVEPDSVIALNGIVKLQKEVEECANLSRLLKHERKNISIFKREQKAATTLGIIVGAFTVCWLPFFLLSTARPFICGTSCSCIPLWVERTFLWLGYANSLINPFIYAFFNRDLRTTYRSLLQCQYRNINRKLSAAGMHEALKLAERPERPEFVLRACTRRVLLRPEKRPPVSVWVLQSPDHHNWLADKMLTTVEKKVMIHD
Sequence of Translocator protein (Rattus norvegicus) (P16257 whole entry, looked up): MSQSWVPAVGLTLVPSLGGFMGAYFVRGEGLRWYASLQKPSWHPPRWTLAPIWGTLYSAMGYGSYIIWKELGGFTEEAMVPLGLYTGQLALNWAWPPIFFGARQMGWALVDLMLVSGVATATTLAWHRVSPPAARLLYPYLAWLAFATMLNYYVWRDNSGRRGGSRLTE
Sequence of Sodium-dependent dopamine transporter (Homo sapiens) (Q01959 whole entry): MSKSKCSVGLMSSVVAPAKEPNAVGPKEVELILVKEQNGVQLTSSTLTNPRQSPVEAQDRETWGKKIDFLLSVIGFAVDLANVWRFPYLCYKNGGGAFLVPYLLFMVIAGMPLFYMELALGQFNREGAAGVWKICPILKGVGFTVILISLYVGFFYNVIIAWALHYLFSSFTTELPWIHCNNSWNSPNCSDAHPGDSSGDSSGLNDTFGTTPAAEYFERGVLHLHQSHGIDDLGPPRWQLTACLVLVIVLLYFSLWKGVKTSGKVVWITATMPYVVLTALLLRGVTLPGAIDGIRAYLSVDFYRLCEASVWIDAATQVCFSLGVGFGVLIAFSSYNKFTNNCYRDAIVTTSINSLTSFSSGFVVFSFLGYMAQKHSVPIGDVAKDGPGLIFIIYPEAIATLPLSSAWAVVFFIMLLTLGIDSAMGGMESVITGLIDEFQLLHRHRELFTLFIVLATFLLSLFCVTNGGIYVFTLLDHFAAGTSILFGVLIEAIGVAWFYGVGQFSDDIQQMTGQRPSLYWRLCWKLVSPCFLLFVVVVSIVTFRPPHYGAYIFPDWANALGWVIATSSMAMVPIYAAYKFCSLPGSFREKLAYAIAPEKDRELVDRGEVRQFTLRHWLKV
Sequence of 5-hydroxytryptamine receptor 6 (Homo sapiens) (P50406 whole entry): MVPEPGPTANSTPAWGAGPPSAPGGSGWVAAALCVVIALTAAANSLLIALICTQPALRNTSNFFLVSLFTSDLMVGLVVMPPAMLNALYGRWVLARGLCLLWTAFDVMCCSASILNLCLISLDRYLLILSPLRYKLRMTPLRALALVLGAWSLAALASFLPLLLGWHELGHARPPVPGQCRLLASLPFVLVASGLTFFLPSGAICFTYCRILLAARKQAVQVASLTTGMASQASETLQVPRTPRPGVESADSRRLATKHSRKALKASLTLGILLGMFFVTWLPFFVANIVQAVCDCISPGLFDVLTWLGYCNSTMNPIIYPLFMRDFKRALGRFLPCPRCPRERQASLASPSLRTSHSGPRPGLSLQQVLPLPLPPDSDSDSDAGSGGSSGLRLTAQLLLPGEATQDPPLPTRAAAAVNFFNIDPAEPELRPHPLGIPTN
Sequence of Prostacyclin receptor (Homo sapiens) (P43119 whole entry): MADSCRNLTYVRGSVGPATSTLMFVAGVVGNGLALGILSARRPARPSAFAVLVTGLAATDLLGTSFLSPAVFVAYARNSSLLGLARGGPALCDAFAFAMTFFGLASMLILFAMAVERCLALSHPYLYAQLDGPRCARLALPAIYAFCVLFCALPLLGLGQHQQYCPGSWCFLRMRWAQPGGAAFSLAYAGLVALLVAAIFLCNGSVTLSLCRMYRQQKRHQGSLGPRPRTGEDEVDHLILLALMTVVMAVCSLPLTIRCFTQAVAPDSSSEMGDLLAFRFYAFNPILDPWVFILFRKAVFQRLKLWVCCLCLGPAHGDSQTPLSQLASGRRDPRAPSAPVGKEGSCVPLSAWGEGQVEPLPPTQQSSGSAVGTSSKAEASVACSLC

Cc1ccccc1/C=C/C(=O)N[C@@H](C)CO
Activity (Rattus norvegicus [1]): Non-Toxic | Activity (Mus musculus [2]): Toxic | Activity (Mus musculus [3]): Non-Toxic | Activity (Mus musculus [4]): Non-Toxic | Activity (Mus musculus [5]): Active | Time (Mus musculus [6]): 0.5 h | selectivity ratio [7]: 3.55 | inhibition [8]: 75.8% | inhibition (Rattus norvegicus [9]): 13.2% | inhibition [10]: 1.4% | inhibition [11]: -3.2% | inhibition [12]: 3% | inhibition [13]: -5% | inhibition [14]: 7% | inhibition [15]: 26.6% | inhibition (AtT20): -4.6% | inhibition (Rattus norvegicus [16]): -5.8% | inhibition [17]: 14.8%

CC(O)CNC(=O)/C=C/c1ccc(Cl)cc1 (stereo unspecified)
Activity (Rattus norvegicus [1]): Non-Toxic | Activity (Mus musculus [18]): Active | Activity (Mus musculus [2]): Toxic | Activity (Mus musculus [3]): Non-Toxic | Activity (Mus musculus [4]): Non-Toxic | Activity (Mus musculus [5]): Active | Activity (Rattus norvegicus [19]): Non-Toxic | Activity (Rattus norvegicus [20]): Non-Toxic | Time (Mus musculus [6]): 1 h | selectivity ratio [7]: 3.51 | inhibition [8]: 8.1% | inhibition (Rattus norvegicus [9]): -1.3% | inhibition [10]: 6.6% | inhibition [11]: 8.9% | inhibition [12]: 2.3% | inhibition [13]: 1% | inhibition [14]: 4.6% | inhibition [15]: 43.5% | inhibition (Rattus norvegicus [16]): -2.5% | inhibition [17]: 16%

CCC(CO)NC(=O)/C=C/c1ccc(Cl)cc1 (stereo unspecified)
Activity (Rattus norvegicus [1]): Non-Toxic | Activity (Mus musculus [18]): Active | Activity (Mus musculus [3]): Non-Toxic | Activity (Mus musculus [4]): Non-Toxic | Activity (Rattus norvegicus [19]): Non-Toxic | Activity (Rattus norvegicus [20]): Non-Toxic | selectivity ratio [7]: 2.12 | inhibition [8]: 53% | inhibition (Rattus norvegicus [9]): 8.7% | inhibition [10]: -1.2% | inhibition [11]: 1.7% | inhibition [12]: 26.7% | inhibition [13]: 2.3% | inhibition [14]: 3.7% | inhibition [15]: 16.2% | inhibition (AtT20): -10% | inhibition (Rattus norvegicus [16]): 2.3% | inhibition [17]: 29.5%

— ChEMBL document CHEMBL3875185, “Structure-anticonvulsant activity studies in the group of (E)-N-cinnamoyl aminoalkanols derivatives monosubstituted in phenyl ring with 4-Cl, 4-CH3 or 2-CH3” (Bioorg Med Chem, 2017)
